Experiments:
Ia antigen = Ia antigen expression on alveolar macrophages (flow cytometry); assay type: cell-based, rat
Experimental: ^a Ia antigen expression - Alveolar macrophages were diluted to 1×10^6 cells/ml in RPMI (supplemented as above). Three mls. (3×10^6 cells) were added to sterile teflon vials and treated with pentamidine or dexamethasone for 4 hours at 37° C., 5% CO2, followed by the addition of rat γ IFN at 100 U/ml. Cells were incubated for 18 hours, pelleted, counted and adjusted to 1×10^7 cells/ml in ice cold standard buffer (HBSS, 0.1% Na azide, 1% BSA).
Aliquots of cells (50 μl in quadruplicate) from the various treatment groups were plated to a 96 well round bottom plate (Linbro) and incubated for 45 minutes on ice with 50 μl aliquots of one of the following: monoclonal anti-rat OXS (Sera-lab), monoclonal anti-mouse OX6 (Sera-lab), both at 0.5 μg/5×10^5 cells, or HBSS (control). Cells were washed 3× with standard buffer and incubated for 45 minutes on ice, in the dark, with 50 μl of phycoerythrin-labeled goat anti-mouse IGGI (Fisher Biotech) at 1 μg/5×10^5 cells. Cells were washed 3× with standard buffer, resuspended in 0.4 ml of standard buffer and analyzed via flow cytometry.

IL-1α = assay: Western blot analysis of cell associated IL-1α; assay type: cell-based, rat; conditions: 1 μM dexamethasone, LPS, 24 h, FIG. 3
Experimental: To determine the effect of pentamidine on cellular stores of IL-1, intracellular levels of IL-1 were quantitated by incubating cells with and without 10 μM pentamidine and LPS for 24 hours. At the end of this incubation period, the cells were washed, lysed and the total cellular protein was collected for Western blot analysis. […] This is in agreement with the generally accepted existence of a precursor form of IL-1 with a molecular weight in the range of 31-33 kD (J. Giri et al., J. Immunol. 134, 343 (1985)).
Cells (4×10^6 cells) were oultured with pentamidine (10μM) or dexamethasone (1μM) in media with 10% fetal calf serum (FCS) in the presence or absence of LPS (1 μg/ml) for 24 hours. The cells were washed twice in HBSS and then scraped in homogenizing buffer (HBSS containing 0.1 mM EGTA, 1 mM pmsf, 10 μg/ml leupeptin, 1 KIU/ml aprotinin, pH 7.4). The cell suspension was left on ice for 10 minutes at which time the swollen cells were disrupted by sonication. The nuclei and undisrupted cells were pelleted by centrifugation at 800 rpm for 10 minutes and were discarded. The supernatant was centrifugated at 39,000 rpm for 1 hour at 4° C. After centrifugation, the supernatants containing cytosolic components of the cell was carefully removed and was used as the cytosol fraction. […] Molecular weight references were determined by running one lane with pre-stained molecular weight standards.

IL-1α mRNA = assay: Northern blot analysis of IL-1α mRNA expression; assay type: cell-based, rat; conditions: 1 μM dexamethasone, LPS, 3 h, FIG. 2
Experimental: Specific transcription of IL-1α mRNA synthesis was assessed by incubating cells with and without 10 μM pentamidine or 1 μM of the corticosteroid, dexamethasone in the presence or absence of lipopolysaccharide (LPS). At the end of a 3 hour incubation period, the cells were lysed and the total cellular RNA was collected, blotted onto a nitrocellulose filter and probed with ^32 P-labeled IL-1α cDNA. […] In contrast, mRNA for IL-1α was not seen in dexamethasone treated cells.
For determination of IL-1 mRNA levels, cells (4×10^6) were cultured with or without pentamidine (10 μM) or dexamethasone (1 μM) in media with 10% FCS in the presence or absence of LPS (1 μg/ml) for 3 hours. Total cellular RNA was isolated by quanidinium-thiocyanate phenolchloroform extraction (P. Chomczynski et al., Anal. Bioch. 162, 156 (1987)). RNA (10 μg) was electrophoresed in 1.2% agarose gels as previously described (H. Leharch et al., Biochemistry 4743 (1977)). […] Hybridizing species were detected by autoradiography at -70° C., using Kodak XAR film with an intensifying screen. The total RNA levels per lane on the gel was assessed by monitoring 28S and 18S, and expression of α-tubulin mRNA. Accumulation of α-tubulin mRNA was determined by probing the same blot with ^32 P labeled 30 mer oligonucleotide (Du Pont).

[1] = system: Pulmonary alveolar macrophages; assay: Phagocytosis by pulmonary alveolar macrophages (Fluoresbrite beads, flow cytometry); assay type: cell-based, rat
Experimental: One ml aliquots were added to sterile teflon vials (Nalgene) along with pentamidine or dexamethasone (Sigma) as indicated, and incubated for 4 hours at 37° C., 5% CO2. Fluoresbrite carboxylate beads, 1.73 μm (Polysciences) were used to achieve a 100:1 bead to cell ratio and the suspension was incubated for 45 minutes at 37° C., 5% CO2 with gentle agitation. Cell suspensions were then layered over 3 mls. of RPMI/FCS+0.3% BSA, and cells pelleted at 150 xg for 10 minutes. Supernates were discarded and cells resuspended in 1 ml of RPMI/FCS for analysis via flow cytometry. The data presented above is the mean of the percentage of cells taking up one or more beads of triplicate cultures.

rat macrophages = assay: In vitro toxicity to the cell (LD50); assay type: cell-based; conditions: imidazoline, summary statement; compared with pentamidine
[2] = In vitro toxicity to the cell (LD50); assay type: cell-based; conditions: rat macrophages
IL-1 [3] = assay: IL-1 release from alveolar macrophages (thymocyte co-stimulation bioassay); assay type: cell-based, rat; conditions: for Effect on IL-1: LPS, 24 h, FIG. 7
Experimental: Pulmonary alveolar macrophages were collected by lavaging the lungs as previously described (D. B. Warheit et al., Am. Rev. Resp. Dis. 134, 128 (1986)). Once washed and resuspended, the macrophages were allowed to adhere to plastic plates in serum free RPMI 1640 containing 25 mM Hepes, 2 mM L-glutamine, 50 μg/ml gentamicin and streptomycin (media). Following adherence for 1 hour at 37° C. in 5% CO2, the plates were washed once with warm media to remove nonadherent cells, cells were resuspended in media with 10% FCS and treated with or without pentamidine at the indicated concentration and LPS (5 ng/ml) for 24 hours). IL-1 activity was assayed using a thymocyte co-stimulation assay (S. B. Mizel in Methods in Macrophage Biology, Editors, Herscowitz and Holden (1981)). Single cell thymocyte suspension from B6C3F1 mice (female, 5-9 weeks old) at a concentration of 2.0×10^7 /ml in media containing 10% FCS, and 2.5×10^-5 M 2-β mercaptoethanol were added in 50 μl aliquots to each well of flat bottom microtiter plates along with 50 μl of PHA at 2.5 μg/ml. Serial dilution of supernatants or cells were made in media with 10% FCS and added in 100 μl aliquots. IL-1 activity was measured by quantifying the uptake of 3Hthymidine during the last 6 hours of a 72 hour culture at 37° C. and 5% CO2. Cells were harvested onto glass fiber filters and filter associated radioactivity counted in a scintillation counter.
(§1) In vitro studies were performed by taking alveolar macrophages from normal healthy rat lungs and culturing them in the presence of an imidazoline with the inducer lipopolysaccharide for 24 hours. The standard bioassay for IL-1 was performed (see above).

tumor necrosis factor = assay: Tumor necrosis factor secretion by rat macrophages; assay type: cell-based
Experimental: It has also been observed that pentamidine (10^-5 M) blocks the secretion of tumor necrosis factor in rat macrophages (42 units/ml - pentamidine vs. 82 units/ml - control), as well as tumor necrosis factor and IL-6 in human macrophages, where at a concentration of 10^-5 M pentamidine, tumor necrosis factor and IL-6 secretion are suppressed >50%. These additional cytokines are also very influential mediators in inflammatory diseases.
as §1

IL-1 [4] = assay: Western blot analysis of IL-1 on cellular protein from imidazoline treated cells; assay type: cell-based, rat
Description: In addition, Western blot analysis of IL-1 on cellular protein derived from imidazoline treated cells was recently performed. This method definitively identifies the presence or absence of the protein using electrophoretic techniques to separate by molecular weight IL-1 from other proteins followed by staining with specific antibody fog IL-1.

SMILES: C[C@@H]1C[C@H]2[C@@H]3CCC4=CC(=O)C=C[C@]4(C)[C@@]3(F)[C@@H](O)C[C@]2(C)[C@@]1(O)C(=O)CO [Dexamethasone]
- Ia Antigen Expression (MFI) (Ia antigen; Dexamethasone 10^-6 M (control 459), p < 0.025 vs. control): 253 MFI
- Mean concentration of Ia molecules on Ia positive cells (Ia antigen; result in words): clearly demonstrated its broad immunosuppressive action on these two macrophage functions
- Cell associated IL-1α (Western blot) (IL-1α): did not express the precursor from of IL-1α
- IL-1α mRNA expression (IL-1α mRNA): not seen
- Phagocytic Index ([1]; Dexamethasone 10^-6 M (control 32), p < 0.025 vs. control): 25%
- Phagocytic capacity of alveolar macrophages ([1]; result in words): clearly demonstrated its broad immunosuppressive action on these two macrophage functions

SMILES: c1cc(C2=NCCN2)ccc1OCCCCCOc1ccc(C2=NCCN2)cc1 [Imidazoline, 1,5-di(4-imidazolinophenoxy)pentane]
- Toxicity to the cell (rat macrophages): less toxic to the cell
- CC50 [2]: > 100 µM
- Effect on IL-1 (IL-1 [3]; imidazoline 10^-6 M, 10^-5 M and 10^-4 M): blocked IL-1 in a dose related manner
- Effect on IL-1 (IL-1 [3]; imidazoline 10^-8 M): No effect
- Block of IL-1 in rat macrophages (IL-1 [3]; imidazoline, summary statement): ability to block IL-1
- Tumor Necrosis Factor (tumor necrosis factor; 10^-5 M Imidazoline, LPS, 24 h (control 83 ± 11)): 46 ± 19 units/ml
- Block of tumor necrosis factor in rat macrophages (tumor necrosis factor; imidazoline, summary statement): ability to block IL-1 and tumor necrosis factor
- Block of IL-1 secretion (Western blot) (IL-1 [4]): blocks the secretion of IL-1 in a similar manner to pentamidine

— patent US5162361A, “Method of treating diseases associated with elevated levels of interleukin 1” (priority 1990, dated 1992)
